Measured values from BindingDB's records for doi:10.1016/0960-894X(95)00327-P (1995).

Assays:
[1] = target: Gastrin/cholecystokinin type B receptor (Cavia porcellus); experiment: Binding activity towards cholecystokinin-B (CCK-B) receptor in guinea pig cortex
[2] = target: Gastrin/cholecystokinin type B receptor (Cavia porcellus); experiment: as above; remark: listed apart in the source

Compound | IC50 [1] [nM] | IC50 [2] [nM]
Cc1ccc2c(c1)N(CC(=O)NC(C)(C)C)C(=O)[C@H](NC(=O)Nc1cccc(-c3nnn[nH]3)c1)C[C@@H]2Cc1ccccc1 [2-((3R,5S)-5-Benzyl-8-methyl-2-oxo-3-{3-[3-(1H-tetrazol-5-yl)-phenyl]-ureido}-2,3,4,5-tetrahydro-benzo[b]azepin-1-yl)-N-tert-butyl-acetamide] | 1.7 | –
Cc1ccc2c(c1)N(CC(=O)NC(C)(C)C)C(=O)[C@H](NC(=O)Nc1cccc(C(=O)NS(=O)(=O)c3ccccc3)c1)C[C@@H]2c1ccccc1 [2-{(3R,5R)-3-[3-(3-Benzenesulfonylaminocarbonyl-phenyl)-ureido]-8-methyl-2-oxo-5-phenyl-2,3,4,5-tetrahydro-benzo[b]azepin-1-yl}-N-tert-butyl-acetamide] | 4.8 | –
COC(=O)c1cccc(NC(=O)N[C@@H]2C[C@H](c3ccccc3)c3ccc(C)cc3N(CC(=O)NC(C)(C)C)C2=O)c1 [3-{3-[(3R,5R)-1-(tert-Butylcarbamoyl-methyl)-8-methyl-2-oxo-5-phenyl-2,3,4,5-tetrahydro-1H-benzo[b]azepin-3-yl]-ureido}-benzoic acid methyl ester] | 1.4 | –
Cc1ccc2c(c1)N(CC(=O)NC(C)(C)C)C(=O)[C@H](NC(=O)Nc1cccc(C(=O)O)c1)C[C@@H]2c1ccccc1 [3-{3-[(3R,5R)-1-(tert-Butylcarbamoyl-methyl)-8-methyl-2-oxo-5-phenyl-2,3,4,5-tetrahydro-1H-benzo[b]azepin-3-yl]-ureido}-benzoic acid] | 2.7 | –
Cc1ccc2c(c1)N(CC(=O)NC(C)(C)C)C(=O)[C@H](NC(=O)Nc1cccc(-c3nnn[nH]3)c1)C[C@@H]2c1ccccc1 [N-tert-Butyl-2-((3R,5R)-8-methyl-2-oxo-5-phenyl-3-{3-[3-(1H-tetrazol-5-yl)-phenyl]-ureido}-2,3,4,5-tetrahydro-benzo[b]azepin-1-yl)-acetamide] | 0.81 | –
Cc1ccc2c(c1)N(CC(=O)NC(C)(C)C)C(=O)[C@H](NC(=O)Nc1cccc(C(=O)NS(=O)(=O)c3ccccc3C)c1)C[C@@H]2c1ccccc1 [N-tert-Butyl-2-((3R,5R)-8-methyl-2-oxo-5-phenyl-3-{3-[3-(toluene-2-sulfonylaminocarbonyl)-phenyl]-ureido}-2,3,4,5-tetrahydro-benzo[b]azepin-1-yl)-acetamide] | 7.9 | –
CCS(=O)(=O)NC(=O)c1cccc(NC(=O)N[C@@H]2C[C@H](c3ccccc3)c3ccc(C)cc3N(CC(=O)NC(C)(C)C)C2=O)c1 [N-tert-Butyl-2-{(3R,5R)-3-[3-(3-ethanesulfonylaminocarbonyl-phenyl)-ureido]-8-methyl-2-oxo-5-phenyl-2,3,4,5-tetrahydro-benzo[b]azepin-1-yl}-acetamide] | 1 | –
Cc1ccc2c(c1)N(CC(=O)NC(C)(C)C)C(=O)[C@H](NC(=O)Nc1cccc(C(=O)NS(C)(=O)=O)c1)C[C@@H]2c1ccccc1 [N-tert-Butyl-2-{(3R,5R)-3-[3-(3-methanesulfonylaminocarbonyl-phenyl)-ureido]-8-methyl-2-oxo-5-phenyl-2,3,4,5-tetrahydro-benzo[b]azepin-1-yl}-acetamide] | 0.88 | –
Cc1ccc2c(c1)N(CC(=O)NC(C)(C)C)C(=O)[C@H](NC(=O)Nc1cccc(C(=O)NS(=O)(=O)Cc3ccccc3)c1)C[C@@H]2c1ccccc1 [N-tert-Butyl-2-{(3R,5R)-8-methyl-2-oxo-5-phenyl-3-[3-(3-phenylmethanesulfonylaminocarbonyl-phenyl)-ureido]-2,3,4,5-tetrahydro-benzo[b]azepin-1-yl}-acetamide] | 4.2 | –
Cc1ccc2c(c1)N(CC(=O)NC(C)(C)C)C(=O)[C@H](NC(=O)Nc1cccc(C(=O)NS(=O)(=O)C(F)(F)F)c1)C[C@@H]2c1ccccc1 [N-tert-Butyl-2-{(3R,5R)-8-methyl-2-oxo-5-phenyl-3-[3-(3-trifluoromethanesulfonylaminocarbonyl-phenyl)-ureido]-2,3,4,5-tetrahydro-benzo[b]azepin-1-yl}-acetamide] | 5.1 | –

Next, values leading:

IC50 [1] [nM] | IC50 [2] [nM] | Compound
0.6 | – | COC(=O)c1cccc(NC(=O)N[C@@H]2C[C@H](C3CCCCC3)c3ccc(C)cc3N(CC(=O)NC(C)(C)C)C2=O)c1 [3-{3-[(3R,5R)-1-(tert-Butylcarbamoyl-methyl)-5-cyclohexyl-8-methyl-2-oxo-2,3,4,5-tetrahydro-1H-benzo[b]azepin-3-yl]-ureido}-benzoic acid methyl ester]
– | 0.1 | Cc1ccc2c(c1)N(CC(=O)NC(C)(C)C)C(=O)[C@H](NC(=O)Nc1cccc(C(=O)O)c1)C[C@@H]2C1CCCCC1 [3-{3-[(3R,5R)-1-(tert-Butylcarbamoyl-methyl)-5-cyclohexyl-8-methyl-2-oxo-2,3,4,5-tetrahydro-1H-benzo[b]azepin-3-yl]-ureido}-benzoic acid]
0.22 | – | Cc1ccc2c(c1)N(CC(=O)NC(C)(C)C)C(=O)[C@H](NC(=O)Nc1cccc(-c3nnn[nH]3)c1)C[C@@H]2C1CCCCC1 [N-tert-Butyl-2-((3R,5R)-5-cyclohexyl-8-methyl-2-oxo-3-{3-[3-(1H-tetrazol-5-yl)-phenyl]-ureido}-2,3,4,5-tetrahydro-benzo[b]azepin-1-yl)-acetamide]
0.98 | – | Cc1ccc2c(c1)N(CC(=O)NC(C)(C)C)C(=O)[C@H](NC(=O)Nc1cccc(-c3nnn[nH]3)c1)C[C@@H]2C(C)C [N-tert-Butyl-2-((3R,5R)-5-isopropyl-8-methyl-2-oxo-3-{3-[3-(1H-tetrazol-5-yl)-phenyl]-ureido}-2,3,4,5-tetrahydro-benzo[b]azepin-1-yl)-acetamide]
0.26 | – | Cc1ccc2c(c1)N(CC(=O)NC(C)(C)C)C(=O)[C@H](NC(=O)Nc1cccc(C(=O)NS(C)(=O)=O)c1)C[C@@H]2C1CCCCC1 [N-tert-Butyl-2-{(3R,5R)-5-cyclohexyl-3-[3-(3-methanesulfonylaminocarbonyl-phenyl)-ureido]-8-methyl-2-oxo-2,3,4,5-tetrahydro-benzo[b]azepin-1-yl}-acetamide]
